# Experimental data from publication PMC6405842, “Identification of a novel scaffold for a small molecule GPR139 receptor agonist” (Scientific Reports, 2019).
# Where two headings read alike, the source gives them in different places.
# Molecular target: T1, GPR139 (Homo sapiens, UniProt Q6DWJ6)
# T1 construct: host or cells: CHO-k1
# T1 sequence (Q6DWJ6 1-353): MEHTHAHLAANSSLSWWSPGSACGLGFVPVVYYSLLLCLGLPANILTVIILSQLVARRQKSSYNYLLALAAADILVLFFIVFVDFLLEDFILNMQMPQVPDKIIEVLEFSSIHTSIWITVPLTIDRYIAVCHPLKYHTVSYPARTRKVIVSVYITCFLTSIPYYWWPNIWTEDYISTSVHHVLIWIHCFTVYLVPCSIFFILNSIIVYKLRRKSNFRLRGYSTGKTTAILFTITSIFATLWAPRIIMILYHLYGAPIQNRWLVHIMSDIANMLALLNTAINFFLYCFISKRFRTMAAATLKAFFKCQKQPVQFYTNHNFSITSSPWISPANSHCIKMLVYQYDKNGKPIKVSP
# Experiment: Fluo-4 calcium mobilization assay, agonist mode, concentration-response curves in CHO-GPR139 cells
# Type: cell-based
# Procedure: All compounds were tested on a CHO-k1 cell line stably expressing GPR139 (CHO-GPR139)[11] kindly provided by H. Lundbeck A/S, Denmark. GPR139-specific responses were assessed using a CHO-k1 cell line stably expressing the muscarinic acetylcholine receptor M1 (CHO-M1) (The Missouri S&T cDNA Resource Center, # CEM100TN00). The CHO-GPR139 cells were grown in Dulbecco’s modified Eagle’s medium (DMEM) F12-Kaighn’s (ThermoFisher Scientific # 21127) supplemented with 10% dialyzed fetal bovine serum (United States origin; ThermoFisher Scientific # 26400), 1% GlutaMAX-I (100X) (ThermoFisher Scientific # 35050061), and 100 units/mL penicillin and 100 µg/mL streptomycin (ThermoFisher Scientific # 15140122) and 1 mg/mL geneticin (ThermoFisher Scientific # 11811031). The CHO-M1 cells were grown in Ham’s F12 (ThermoFisher Scientific # 21765) supplemented with 10% fetal bovine serum (South American origin; ThermoFisher Scientific # 10270) + 100 units/mL penicillin and streptomycin and 0.25 mg/mL geneticin.
# The Fluo-4 Ca^2+-assay was performed as described previously, with minor modifications. After 1 hour incubation with the Fluo-4 dye, the CHO-GPR139 cells were washed with 100 μL HEPES buffer (Hank’s Balanced Salt Solution (HBBS, ThermoFisher Scientific # 14175053) supplemented with 20 mM HEPES, 1 mM MgCl2, 1 mM CaCl2, pH = 7.4) and the compound library was then added in concentrations between 25–63 μM dissolved in HEPES buffer (supplemented with 2.5 mM probenecid and 1% DMSO) and pre-incubated for 10 min at 37 °C. 33 μL of 3.2 μM 1a were added automatically after baseline measurements. […] This set-up allowed us to identify both antagonists and agonists (Fig. 2).
# Each compound, for which a concentration response curve was made, was tested at least three times in duplicate measurements. After the incubation with the Fluo-4 dye and a wash, 100 μL HEPES buffer (supplemented with 2.5 mM probenecid) was added to each well and incubated for 10 minutes at 37 °C before recording. 33 μL of compounds (4× concentrated) were added automatically after baseline measurements.
# The Ca^2+ and ERK responses were normalized as indicated and the concentration response curves were fitted by Prism 6 software (GraphPad) using nonlinear regression in a sigmoidal model with variable slope, as has been previously described.
# [1] = calcium mobilization assay, GPR139, values printed with a minus sign, read-out: pEC50 ± SEM (converted)
# [2] = calcium mobilization assay, efficacy normalized to compound 1a
# [3] = CHO-GPR139 cells, at least three independent concentration-response curves in duplicate, read-out: EC50
# [4] = CHO-GPR139 cells, normalized to buffer (0%) and 8 μM 1a (100%)
# [5] = Table S1, 11 primary screen hits
# [6] = Table S1, 11 primary screen hits, read-out: EC50
# [7] = Table S1, normalized to compound 1a
Structure (SMILES),pEC50 ± S.E.M. (CHO-GPR139 cells),EC50 [3] [nM],Emax ± S.E.M. [4] [%],further results
O=C(O)C1CC=CCC1c1nnc(CSc2ccc(Cl)cc2)o1 (stereo not shown) [AC004],–,–,–,EC50 [1]: 219 nM; Emax [2]: 116%
C=CCN(CC=C)C(=O)CN1C(=O)NC(C)(c2ccc3c(c2)OCO3)C1=O (stereo not shown) [AC7],6.41 ± 0.12,390,112 ± 5,–
Cc1ccc(C2(C)NC(=O)N(Cc3cn4cc(Cl)ccc4n3)C2=O)cc1 (stereo not shown) [AC10],–,–,–,pEC50 ± S.E.M. [5]: 5.55 ± 0.03; EC50 [6]: 2830 nM; Emax ± S.E.M. [7]: 89 ± 5%
CC1(C2CC2)NC(=O)N(CC(=O)N2CCCSc3ccccc32)C1=O (stereo not shown) [AC11],–,–,–,pEC50 ± S.E.M. [5]: 5.15 ± 0.12; EC50 [6]: 7070 nM; Emax ± S.E.M. [7]: 33 ± 3%
CC(C)OCCCNC(=O)NC(C)c1ccc2c(c1)OCO2 (stereo not shown) [AC12],–,–,–,pEC50 ± S.E.M. [5]: 5.43 ± 0.19; EC50 [6]: 3740 nM; Emax ± S.E.M. [7]: 116 ± 8%
Cc1ccc(CNC(=O)NCC2CN(CC(C)C)CCO2)cc1 (stereo not shown) [AC13],–,–,–,pEC50 ± S.E.M. [5]: 4.68 ± 0.13; EC50 [6]: 20700 nM; Emax ± S.E.M. [7]: 90 ± 5%
O=C(NCCCc1nc2ccccc2[nH]1)NC1CCSc2ccc(F)cc21 (stereo not shown) [AC14],6.11 ± 0.12,780,93 ± 3,–
CN(CC(=O)NC1CC1)C(=O)COc1ccc2oc3c(c2c1)CCCC3 [AC16],–,–,–,pEC50 ± S.E.M. [5]: 4.92 ± 0.12; EC50 [6]: 11900 nM; Emax ± S.E.M. [7]: 44 ± 4%
O=C(NCCc1cc(Cl)c2c(c1)OCCO2)NCc1cccnc1-n1ccnc1 [AC37],–,–,–,pEC50 ± S.E.M. [5]: 5.55 ± 0.19; EC50 [6]: 2800 nM; Emax ± S.E.M. [7]: 105 ± 8%
CC(C)OCCCNC(=O)NC(C)c1cccc(Cl)c1 (stereo not shown) [AC76],6.03 ± 0.10,940,97 ± 4,–
CC(C)OCCCNC(=O)NC(C)c1ccccc1Cl (stereo not shown) [AC77],6.22 ± 0.17,600,102 ± 4,–
CC(C)COCCCNC(=O)NC(C)c1ccc(Br)cc1 (stereo not shown) [AC82],6.54 ± 0.08,290,102 ± 6,–
Cc1ccc(C(=O)CN2C(=O)NC(C)(c3ccc4c(c3)OCO4)C2=O)cc1 (stereo not shown) [AC136],6.01 ± 0.03,990,67 ± 6,–
COc1ccc(OC)c(C(=O)CN2C(=O)NC(C)(c3ccc4c(c3)OCO4)C2=O)c1 (stereo not shown) [AC137],6.27 ± 0.08,540,92 ± 3,–
COc1ccc(C(=O)CN2C(=O)NC(C)(c3ccc4c(c3)OCO4)C2=O)cc1OC (stereo not shown) [AC138],6.10 ± 0.14,790,100 ± 5,–
CC(NC(=O)NCC(=O)NCC1CC1)c1ccc(F)cc1Cl (stereo not shown) [AC178],6.55 ± 0.07,280,97 ± 5,–
CC1CC(C)CN(C(=O)CN2C(=O)NC(C)(c3cccc4ccccc34)C2=O)C1 (stereo not shown) [AC186],6.39 ± 0.12,410,89 ± 5,–

Structure (SMILES),pEC50 ± S.E.M. (CHO-GPR139 cells),EC50 [3] [nM],Emax ± S.E.M. [4] [%],further results
CC1(c2cccc3ccccc23)NC(=O)N(CC(=O)N2CCCCCC2)C1=O (stereo not shown) [AC187],6.13 ± 0.22,740,102 ± 5,–
CC1(c2ccc3c(c2)OCCO3)NC(=O)N(CC(=O)c2ccc[nH]2)C1=O (stereo not shown) [AC191],6.46 ± 0.16,350,99 ± 2,–
CC1(c2ccc3c(c2)OCO3)NC(=O)N(CC(=O)N2CCCCC2)C1=O (stereo not shown) [AC192],6.12 ± 0.13,750,95 ± 1,–
CC1(c2ccc3c(c2)OCCO3)NC(=O)N(CC(=O)c2c[nH]c3ccccc23)C1=O (stereo not shown) [AC200],6.34 ± 0.11,460,111 ± 5,–
CC(=O)Oc1cccc2c1C(=O)c1c(OC(C)=O)cc(C(=O)O)cc1C2=O [AC201],–,–,–,"EC50 (calcium mobilization assay, GPR139, read-out: EC50): 1800 nM; EC50 [1]: 1780 nM; Emax [2]: 96%"
CC1(c2ccc3c(c2)OCO3)NC(=O)N(CC(=O)N2CCCc3ccccc32)C1=O (stereo not shown) [AC202],6.47 ± 0.09,340,102 ± 2,–
CC1(c2ccc3c(c2)OCCO3)NC(=O)N(CC(=O)c2ccc3c(c2)OCO3)C1=O (stereo not shown) [AC205],6.36 ± 0.14,440,100 ± 3,–
CC1(c2ccc3c(c2)OCCO3)NC(=O)N(CC(=O)N2CCc3ccccc3C2)C1=O (stereo not shown) [AC209],6.54 ± 0.17,290,107 ± 3,–
CCc1cccc2c(C(=O)CN3C(=O)NC(C)(c4ccc5c(c4)OCCO5)C3=O)c[nH]c12 (stereo not shown) [AC210],6.20 ± 0.24,630,115 ± 8,–
CC(C)(C)c1cc(NC(=O)Nc2ccc(-c3cn4c(n3)sc3cc(OCCN5CCOCC5)ccc34)cc2)no1 [AC220],–,490,–,Emax [4]: 103 ± 3%
C=CCN(CC=C)C(=O)CN1C(=O)NC(C)(c2cccc3ccccc23)C1=O (stereo not shown) [AC229],6.36 ± 0.16,430,95 ± 2,–
C=C(C)CN(CC)C(=O)CN1C(=O)NC(C)(c2cccc3ccccc23)C1=O (stereo not shown) [AC230],6.31 ± 0.27,490,89 ± 1,–
CC1(c2cccc3ccccc23)NC(=O)N(CC(=O)c2cc3ccccc3o2)C1=O (stereo not shown) [AC233],6.47 ± 0.19,340,80 ± 6,–
CC1(c2cccc3ccccc23)NC(=O)N(CC(=O)c2ccc3c(c2)OCO3)C1=O (stereo not shown) [AC234],6.42 ± 0.07,380,99 ± 3,–
CC1(c2cccc3ccccc23)NC(=O)N(CC(=O)c2ccc(CCNS(C)(=O)=O)s2)C1=O (stereo not shown) [AC241],6.38 ± 0.06,420,88 ± 3,–
CC1(c2cccc3ccccc23)NC(=O)N(CC(=O)NCCc2ccccc2)C1=O (stereo not shown) [AC243],6.45 ± 0.11,350,86 ± 5,–
